Data taken from patent US11077090B2, “Compounds and compositions and uses thereof” (Sunovion Pharmaceuticals Inc., priority 2016, dated 2021).
Like-named read-outs stand apart in the source and are kept apart here.

Test system: compound-treated mice
Test: Neuropharmacological assay (SmartCube): behavioral activity signature and minimal effective dose
Assay type: in vivo
Details: for minimal effective dose: Mus musculus, ip, MED = dose having 50% or more total activity; for AD: ADHD (probability of activity signature) / AG: analgesic (probability of activity signature) / AX: anxiolytic (probability of activity signature) / CE: cognitive enhancer (probability of activity signature) / DP: anti-depressant (probability of activity signature) / MS: mood stabilizer (probability of activity signature) / PS: anti-psychotic (probability of activity signature) / SD: sedative hypnotic (probability of activity signature) / UN: uncharacterized CNS activity (probability of activity signature): i.p. 15 min before test, most efficacious dose(s)
From the text: Neurosci. 2011 Sep. 9; 5:103 (doi: 10.3389/fnins.2011.00103) (“Roberds”). As reported in Roberds, because psychiatric diseases generally result from disorders of cell-cell communication or circuitry, intact systems are useful in detecting improvement in disease-relevant endpoints. These endpoints are typically behavioral in nature, often requiring human observation and interpretation. To facilitate testing of multiple compounds for behavioral effects relevant to psychiatric disease, PsychoGenics, Inc. (Tarrytown, N.Y., “PGI”) developed SmartCube™, an automated system in which behaviors of compound-treated mice are captured by digital video and analyzed with computer algorithms. (D. Brunner et al., Drug Discov. Today 2002, 7:S107-S112). PGI Analytical Systems uses data from SmartCube™ to compare the behavioral signature of a test compound to a database of behavioral signatures obtained using a large set of diverse reference compounds. (The composition of the database as well as validation of the method is further described in Roberds). In this way, the neuropharmacological effects of a test compound can be predicted by similarity to major classes of compounds, such as antipsychotics, anxiolytics and antidepressants.
The SmartCube™ system produces an activity signature indicating the probability that the activity of the test compound at the administered dose matches a given class of neuropharmacological agents. (See, e.g., Roberds, FIGS. 2 and 3). The test compound is simultaneously compared against multiple classes of agents; thus, a separate probability is generated for each behavioral effect measured (e.g., anxiolytic activity, analgesic activity, etc.). In the table below, these probabilities are reported for each behavioral effect measured as follows:
where LOQ is the limit of quantification.
Provided compounds were dissolved in a mixture of Pharmasolve™ (N-methyl-2-pyrrolidone), polyethylene glycol and propylene glycol, and were injected i.p. 15 min. before the behavioral test. For each compound, injections were administered at 3 different doses. For each behavioral effect measured, results for the most efficacious dose(s) are presented. In the table below, DP: anti-depressant; AX: anxiolytic; SD: sedative hypnotic; PS: anti-psychotic; MS: mood stabilizer; AD: ADHD; CE: cognitive enhancer; AG: analgesic; UN: uncharacterized CNS activity.
The potency of many of the compounds in the table was also determined in the SmartCube™ system. Test compounds were routinely examined at dose levels of 0.3, 1, 3, 10 and 30 mg per kg (mpk), although the dose range was increased or decreased if necessary to obtain a full dose response curve. A compound's minimal effective dose (MED) is a measure of the compounds potency. The MED was defined as the dose (in mpk) having 50% or more total activity in SmartCube.

[1] = read-out: Potency: minimal effective dose (MED), binned
[2] = read-out: Potency: minimal effective dose (MED)

| Structure (SMILES) | minimal effective dose [1] | AD: ADHD (probability of activity signature) | AG: analgesic (probability of activity signature) | AX: anxiolytic (probability of activity signature) | CE: cognitive enhancer (probability of activity signature) | DP: anti-depressant (probability of activity signature) | MS: mood stabilizer (probability of activity signature) | PS: anti-psychotic (probability of activity signature) | SD: sedative hypnotic (probability of activity signature) | UN: uncharacterized CNS activity (probability of activity signature) | minimal effective dose [2] |
| --- | --- | --- | --- | --- | --- | --- | --- | --- | --- | --- | --- |
| CC[C@H]1OCc2ccccc2[C@H]1N (single isomer, unassigned) [Example 192] | < 3 mg/kg | + (LOQ ≤ + <5%) | + (LOQ ≤ + <5%) | ++ (5% ≤ ++ <25%) | ++ (5% ≤ ++ <25%) | + (LOQ ≤ + <5%) | + (LOQ ≤ + <5%) | ++ (5% ≤ ++ <25%) | ++ (5% ≤ ++ <25%) | ++++ (50% ≤ ++++) |  |
| Cl.NC1COCc2ccc3c(c21)CCCC3 (centres unmarked) [Example 19, 2,4,7,8,9,10-Hexahydro-1H-benzo[f]isochromen-1-amine hydrochloride] |  | + (LOQ ≤ + <5%) | ++ (5% ≤ ++ <25%) | +++ (25% ≤ +++ <50%) | ++ (5% ≤ ++ <25%) | + (LOQ ≤ + <5%) | + (LOQ ≤ + <5%) | ++ (5% ≤ ++ <25%) | ++ (5% ≤ ++ <25%) | +++ (25% ≤ +++ <50%) | 10 to 30 mg/kg |
| Cc1cccc2c1C(N)COC2.Cl (centres unmarked) [Example 21, 5-Methylisochroman-4-amine hydrochloride] |  | + (LOQ ≤ + <5%) | ++ (5% ≤ ++ <25%) | ++ (5% ≤ ++ <25%) | ++ (5% ≤ ++ <25%) | ++ (5% ≤ ++ <25%) | + (LOQ ≤ + <5%) | ++ (5% ≤ ++ <25%) | ++ (5% ≤ ++ <25%) | +++ (25% ≤ +++ <50%) | 3 to 10 mg/kg |
| C[C@@H]1OCc2ccc(Cl)cc2[C@@H]1N.Cl [Example 194] | 3 to 10 mg/kg | + (LOQ ≤ + <5%) | ++ (5% ≤ ++ <25%) | ++ (5% ≤ ++ <25%) | ++ (5% ≤ ++ <25%) | ++ (5% ≤ ++ <25%) | + (LOQ ≤ + <5%) | ++ (5% ≤ ++ <25%) | + (LOQ ≤ + <5%) | ++++ (50% ≤ ++++) |  |
| NC1COCc2ccc(F)cc21 (centres unmarked) [Example 6] |  | + (LOQ ≤ + <5%) | ++ (5% ≤ ++ <25%) | ++ (5% ≤ ++ <25%) | + (LOQ ≤ + <5%) | ++ (5% ≤ ++ <25%) | + (LOQ ≤ + <5%) | + (LOQ ≤ + <5%) | ++ (5% ≤ ++ <25%) | ++++ (50% ≤ ++++) | 3 to 10 mg/kg |
| Cl.NC1COCc2ccc3c(c21)CCCO3 (centres unmarked) [Example 52, 1,2,4,8,9,10-Hexahydropyrano[4,3-f]chromen-1-amine hydrochloride] |  | + (LOQ ≤ + <5%) | ++ (5% ≤ ++ <25%) | +++ (25% ≤ +++ <50%) | ++ (5% ≤ ++ <25%) | ++ (5% ≤ ++ <25%) | + (LOQ ≤ + <5%) | ++ (5% ≤ ++ <25%) | ++ (5% ≤ ++ <25%) | + (LOQ ≤ + <5%) | 3 to 10 mg/kg |
| CCCN[C@H]1c2ccccc2CO[C@@H]1C.Cl [Example 268] | 3 to 10 mg/kg | ++ (5% ≤ ++ <25%) | + (LOQ ≤ + <5%) | ++ (5% ≤ ++ <25%) | + (LOQ ≤ + <5%) | + (LOQ ≤ + <5%) | ++ (5% ≤ ++ <25%) | +++ (25% ≤ +++ <50%) | ++ (5% ≤ ++ <25%) | ++ (5% ≤ ++ <25%) |  |
| Cc1cccc2c1[C@H](N)[C@H](C)OC2.Cl [Example 82] |  | + (LOQ ≤ + <5%) | ++ (5% ≤ ++ <25%) | +++ (25% ≤ +++ <50%) | ++ (5% ≤ ++ <25%) | ++ (5% ≤ ++ <25%) | + (LOQ ≤ + <5%) | ++ (5% ≤ ++ <25%) | ++ (5% ≤ ++ <25%) | +++ (25% ≤ +++ <50%) | < 3 mg/kg |
| CC[C@H]1OCc2ccc(C)cc2[C@@H]1N.Cl (relative stereo) [Example 99, trans-3-Ethyl-6-methylisochroman-4-amine hydrochloride] |  | + (LOQ ≤ + <5%) | ++ (5% ≤ ++ <25%) | +++ (25% ≤ +++ <50%) | ++ (5% ≤ ++ <25%) | ++ (5% ≤ ++ <25%) | + (LOQ ≤ + <5%) | ++ (5% ≤ ++ <25%) | + (LOQ ≤ + <5%) | +++ (25% ≤ +++ <50%) | 3 to 10 mg/kg |
| CN[C@@H]1COCc2ccc(C)c(C)c21 [Example 143] |  | + (LOQ ≤ + <5%) | +++ (25% ≤ +++ <50%) | ++ (5% ≤ ++ <25%) | ++ (5% ≤ ++ <25%) | ++ (5% ≤ ++ <25%) | + (LOQ ≤ + <5%) | + (LOQ ≤ + <5%) | ++ (5% ≤ ++ <25%) | ++ (5% ≤ ++ <25%) | 3 to 10 mg/kg |
| Cc1cccc2c1[C@H](N)[C@@H](C)OC2.Cl [Example 83] |  | + (LOQ ≤ + <5%) | ++ (5% ≤ ++ <25%) | ++ (5% ≤ ++ <25%) | ++ (5% ≤ ++ <25%) | + (LOQ ≤ + <5%) | + (LOQ ≤ + <5%) | ++ (5% ≤ ++ <25%) | + (LOQ ≤ + <5%) | ++++ (50% ≤ ++++) | 3 to 10 mg/kg |
